US6406718B1, “Orthorhombic crystalline form of fluticasone propionate and pharmaceutical compositions thereof” (SmithKline Beecham Corporation, priority 1996, dated 2002)

How the values were obtained:
Type in all cases: physicochemical
[1] = Solvent content test by NMR
Method: The solvent content of fluticasone propionate of the present invention was investigated by Nuclear Magnetic Resonance (NMR) and compared to that of conventional crystallised fluticasone propionate. Each sample was tested for acetone content. (The conventionally crystallised fluticasone propionate was crystallised from acetone.) In addition, sample 5 was crystallised from methanol and therefore tested for methanol.

[2] = Static charge test (drug retained on vial walls after rolling); details: after rolling drug in the vial for 2 minutes
Method: A simple test was devised to ascertain a relative static charge based on the quantity of drug remaining coated to the walls of a vial after rolling a predetermined quantity of drug in the vial for 2 minutes. The greater the amount of the drug remaining on the vial, the higher the relative static charge associated with the drug substance.

[3] = Particle size distribution by laser diffraction (Malvern Mastersizer)
Method: The data for four samples of fluticasone propionate of the present invention, produced using the method and apparatus described herein, are presented in Table 2 below. The particle size was determined by laser diffraction (Malvern Mastersizer).
The particle size was determined by laser diffraction (Malvern Mastersizer).

[4] = Dynamic bulk density (fluidisability)
Method: The dynamic bulk density (W) is indicative of a substance's fluidisability and is defined as: [formula]
where P is the packed bulk density (g cm^−3), A is the aerated bulk density (g cm^−3) and C is the compressibility (%) where C is calculated by the equation: [formula]
Clearly, a low figure for W corresponds to a high degree of fluidisability.
The dynamic bulk density for conventionally crystallised fluticasone propionate (micronised and non-micronised) and fluticasone propionate of the present invention are shown in Table 7.

[5] = Water content of crystalline forms
Text: The water content of the two crystalline forms of fluticasone propionate produced with the apparatus described herein has also been determined, and compared with that of conventionally crystallised and micronised fluticasone propionate.

[6] = Stability of Form 2 to conversion to Form 1 by XRPD; details: after 62 weeks at ambient temperature and humidity
Method: X-ray powder diffraction (XRPD) patterns were generated using either a Siemens D 5000 or Philips X'pert MPD. The powders were scanned over a 2θ angle range of either 1.5° to 60°, or 0° to 35°, with a 0.02-0.050 step at 3-15 seconds count time using CuKα radiation. The Siemens D5000 measures intensity as counts per second and the Philips X'pert MPD measures intensity as counts.

[7] = Particle shape by scanning electron microscopy
Method: The particle shape was determined by scanning electron microscopy. Data for three samples of fluticasone propionate of the present invention, produced using the method and apparatus described herein, are presented in FIGS. 5 to 7.

[8] = drug material used in Inhaler Type A for cascade impaction
[9] = laser diffraction (Malvern Mastersizer)

Substance	% <5 μm [3, 9] [%]	% <10 μm [3, 9] [%]	Mean particle size [3, 9]	Uniformity Index [3, 9]	further results
fluticasone propionate [Conventionally crystallised fluticasone propionate (micronis] [reference compound]	>90	>95	1-3 μm	15	Acetone Content [1]: typically 0.7 % w/w; % Drug retained on vial [2]: 4.5%; Mean particle size [3, 8]: 1.8 microns; Dynamic Bulk Density (W) [4]: 0.21 g cm^−3; Water content [5]: <0.1 % w/w
fluticasone propionate [Conventionally crystallised fluticasone propionate (non-micr] [reference compound]					Dynamic Bulk Density (W) [4]: 0.21 g cm^−3
fluticasone propionate [Form 1 fluticasone propionate prepared as described herein]					Water content [5]: <0.1 % w/w
fluticasone propionate [Form 2 fluticasone propionate prepared as described herein]					Conversion of Form 2 to Form 1 [6]: no conversion was seen; Water content [5]: >0.3 % w/w
fluticasone propionate [Sample 1]	48	81	5.2 μm	12	
fluticasone propionate [Sample 2]	20	48	10.4 μm	13	
fluticasone propionate [Sample 3]	6	13	31.0 μm	12	Dynamic Bulk Density (W) [4]: 0.17 g cm^−3
fluticasone propionate [Sample 4]	68	83	2.8 μm	4	
fluticasone propionate [Sample 5]					Particle shape [7]: acicular; Acetone Content [1]: Not Detected; Methanol Content [1]: Not Detected
fluticasone propionate [Sample 6]	24	51	9.7 μm	10	Particle shape [7]: flake-like
fluticasone propionate [Sample 7]					Particle shape [7]: equant
fluticasone propionate [Sample 8]	23	53	9.4 μm	11	Acetone Content [1]: Not Detected
fluticasone propionate [Sample 9]	23	52	9.6 μm	12	
fluticasone propionate [Sample 12]					Dynamic Bulk Density (W) [4]: 0.05 g cm^−3
fluticasone propionate [Sample 13]					Dynamic Bulk Density (W) [4]: 0.06 g cm^−3
fluticasone propionate [Sample 14]					% Drug retained on vial [2]: 3.8%
fluticasone propionate [Sample 15]					Acetone Content [1]: Not Detected; % Drug retained on vial [2]: 4.2%
fluticasone propionate [Sample 16]					% Drug retained on vial [2]: 7.6%
fluticasone propionate [Sample 17]					% Drug retained on vial [2]: 8.6%
fluticasone propionate [Sample 19]					Mean particle size [3, 8]: 4.8 microns
